Ends that are not written are not given here.
How the values were obtained:
[1] = tested on: polyclonal antibody ab6982; assay: Epitope mapping of polyclonal antibody ab6982 against cyclic peptides of Ad5 fiber and hexon (peptide array); type: binding, rabbits; conditions: cyclic peptides of fiber protein (clusters 1-7)
Source text: Polyclonal antibody ab6982 (Abcam) was generated by immunizing rabbits with purified AdV. It reacts with all capsid proteins of Ad5 including hexon, fiber and penton. It was shown that the antibody neutralizes Ad5 infection in a bioassay at 1000 adenovirus 5 particles/ml, a 50% inactivation of the adenovirus can be achieved at a 1/25,000 dilution of the antibody. In order to identify epitopic regions that could contain peptides for ab6982 paratope binding, the antibody was mapped against the sequences of fiber (NCBI Reference Sequence: AP 000226.1) and hexon protein (GenBank: BAG48782.1). […] The binding signal of this antibody to the array yielded several peptides that were aligned and clustered against the sequence of the protein. The peptide clusters were named cluster1-7 (fiber protein) and clusters8-16 (hexon protein) according to their ranked order of cyclic peptide hits (i.e. cluster contains the strongest binders, cluster2 the second strongest etc.). Below are the aligments of the corresponding peptides that bind to polyclonal antibody ab6982.

[2] = tested on: IgG from human donors (anti-AAV antibodies); assay: Screen for anti-AAV antibodies in human sera, 2452 linear 15-amino-acid AAV peptides on microarrays (Table 1); type: binding; design: key to group I: X: the deduplicated aggregate of the respective top 10 peptide hits for each donor was compiled and designated as group I; key to group II: X: the deduplicated aggregate of the respective top 25 peptide hits for each donor was compiled and designated as group II; key to group III: X: the deduplicated aggregate of the respective top 50 peptide hits for each donor was compiled and designated as group III; conditions: human donor IgG binding to linear 15-amino-acid AAV peptides on microarray, fluorescence; for group II: membership in deduplicated aggregate of top 25 peptide hits for each donor; for group III: membership in deduplicated aggregate of top 50 peptide hits for each donor
Method in brief: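 Peptide hits were grouped I to IV by pooling each donor's top 10, 25, 50 or 250 background-corrected fluorescence signals, after deduplication. Signals came from donor IgG, purified on protein G, bound to arrayed 15-residue linear peptides (2452 total) spanning 16 AAV sequences.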

Row | Sequence | antibody binding signal ranking from the microarray experiment [1] | group I ([2]; membership in deduplicated aggregate of top 10 peptide hits for each donor) | group II [2] | group III [2]
1 | APGKKRPVEHSPVE (REGION 1..14: note = peptide derived from viral capsid protein) [SEQ ID NO: 1999] | 061 | X | X | X
2 | DIYYQGPIWAKIPH (REGION 1..14: note = peptide derived from viral capsid protein) [SEQ ID NO: 2040] | 102 | – | X | X
3 | DIYYQGPIWAKVPH [SEQ ID NO: 2030] | 030 | – | X | X
4 | DKFFPMSGVMIFGK (not fully specified) [SEQ ID NO: 2044] | 147 | – | X | X
5 | EEEIKATNPVATER [SEQ ID NO: 2045] | 148 | – | X | X
6 | EEEIKTTNPVATES (REGION 1..14: note = peptide derived from viral capsid protein) [SEQ ID NO: 2014] | 123 | – | X | X
7 | EFAWPGASSWALNG (REGION 1..14: note = peptide derived from viral capsid protein) [SEQ ID NO: 2015] | 126 | – | X | X
8 | EGADGVGNASGNWH (REGION 1..14: note = peptide derived from viral capsid protein) [SEQ ID NO: 2046] | 169 | – | X | X
9 | EGASYQVPPQPNGM [SEQ ID NO: 2061] | 108 | – | X | X
10 | EYRTTRPIGTRYLT [SEQ ID NO: 2062] | 134 | – | X | X
11 | FEKVPFHSMYAHSQ (REGION 1..14: note = peptide derived from viral capsid protein) [SEQ ID NO: 2031] | 058 | – | X | X
12 | FSAARINSFLTQYS [SEQ ID NO: 2032] | 059 | – | X | X
13 | GESESVPDPQPIGE [SEQ ID NO: 2058] | 091 | – | X | X
14 | GGQMATNNQSLALG [SEQ ID NO: 2021] | 020 | – | X | X
15 | GQTGESESVPDPQP [SEQ ID NO: 2059] | 095 | – | X | X
16 | HKDDEEKFFPQSGV (REGION 1..14: note = peptide derived from viral capsid protein) [SEQ ID NO: 2002] | 150 | – | X | X
17 | HSQSLDRLMNPLLD [SEQ ID NO: 2051] | 008 | – | X | X
